What all share (test): Kinase panel profiling at 1 µmol/L (mobility shift assay, Carna)
Common to all, as to type: biochemical
Common to all, as to settings: 1 µmol/L of BTK inhibitor

In one experiment the target is T1, DDR2 (Homo sapiens, UniProt Q16832).
T1 construct: purchased Carna Biosciences
T1 sequence (Q16832 22-855): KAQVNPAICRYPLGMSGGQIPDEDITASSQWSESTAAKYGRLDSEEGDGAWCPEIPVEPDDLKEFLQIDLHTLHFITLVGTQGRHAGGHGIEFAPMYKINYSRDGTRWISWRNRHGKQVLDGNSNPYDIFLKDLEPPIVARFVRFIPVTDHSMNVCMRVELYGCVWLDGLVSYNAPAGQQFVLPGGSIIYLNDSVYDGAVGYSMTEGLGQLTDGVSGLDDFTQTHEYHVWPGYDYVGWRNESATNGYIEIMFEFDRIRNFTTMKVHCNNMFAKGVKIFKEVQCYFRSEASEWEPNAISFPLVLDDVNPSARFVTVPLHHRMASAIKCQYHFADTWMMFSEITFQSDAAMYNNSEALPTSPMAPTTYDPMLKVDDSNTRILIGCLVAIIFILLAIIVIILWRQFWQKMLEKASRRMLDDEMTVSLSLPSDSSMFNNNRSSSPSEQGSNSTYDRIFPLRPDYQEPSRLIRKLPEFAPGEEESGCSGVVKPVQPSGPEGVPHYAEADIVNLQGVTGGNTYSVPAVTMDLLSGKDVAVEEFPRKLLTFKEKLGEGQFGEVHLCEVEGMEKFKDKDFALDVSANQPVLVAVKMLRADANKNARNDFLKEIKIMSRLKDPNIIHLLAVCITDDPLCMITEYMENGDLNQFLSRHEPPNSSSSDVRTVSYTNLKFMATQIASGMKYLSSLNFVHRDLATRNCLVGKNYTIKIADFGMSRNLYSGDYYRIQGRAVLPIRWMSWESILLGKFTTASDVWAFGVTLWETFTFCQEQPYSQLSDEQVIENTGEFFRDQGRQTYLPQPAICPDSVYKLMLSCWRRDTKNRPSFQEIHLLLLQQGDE

The target of a further experiment is T2, FLT4 (Homo sapiens, UniProt P35916).
T2 construct: purchased Carna Biosciences

The next experiment addresses T3, AurA/TPX2 (Homo sapiens, UniProt O14965).
T3 construct: purchased Carna Biosciences
T3 sequence (O14965 1-403): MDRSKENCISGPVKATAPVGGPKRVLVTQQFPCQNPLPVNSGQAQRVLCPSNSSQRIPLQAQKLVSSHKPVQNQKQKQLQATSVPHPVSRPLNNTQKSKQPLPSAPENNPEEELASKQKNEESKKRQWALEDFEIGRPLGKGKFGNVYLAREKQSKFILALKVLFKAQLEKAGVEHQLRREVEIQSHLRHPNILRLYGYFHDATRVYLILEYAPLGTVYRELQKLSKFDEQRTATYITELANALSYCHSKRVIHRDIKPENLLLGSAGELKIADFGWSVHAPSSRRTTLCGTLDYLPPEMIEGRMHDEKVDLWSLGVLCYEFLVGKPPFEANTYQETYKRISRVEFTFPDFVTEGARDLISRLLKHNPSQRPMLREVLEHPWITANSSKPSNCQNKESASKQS
T3 sequence (Q9ULW0 1-43 partner limits assumed): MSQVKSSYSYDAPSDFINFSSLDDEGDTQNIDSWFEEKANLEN

The next experiment addresses T4, BRSK1 (Homo sapiens, UniProt Q8TDC3).
T4 construct: purchased Carna Biosciences
T4 sequence (Q8TDC3 1-778): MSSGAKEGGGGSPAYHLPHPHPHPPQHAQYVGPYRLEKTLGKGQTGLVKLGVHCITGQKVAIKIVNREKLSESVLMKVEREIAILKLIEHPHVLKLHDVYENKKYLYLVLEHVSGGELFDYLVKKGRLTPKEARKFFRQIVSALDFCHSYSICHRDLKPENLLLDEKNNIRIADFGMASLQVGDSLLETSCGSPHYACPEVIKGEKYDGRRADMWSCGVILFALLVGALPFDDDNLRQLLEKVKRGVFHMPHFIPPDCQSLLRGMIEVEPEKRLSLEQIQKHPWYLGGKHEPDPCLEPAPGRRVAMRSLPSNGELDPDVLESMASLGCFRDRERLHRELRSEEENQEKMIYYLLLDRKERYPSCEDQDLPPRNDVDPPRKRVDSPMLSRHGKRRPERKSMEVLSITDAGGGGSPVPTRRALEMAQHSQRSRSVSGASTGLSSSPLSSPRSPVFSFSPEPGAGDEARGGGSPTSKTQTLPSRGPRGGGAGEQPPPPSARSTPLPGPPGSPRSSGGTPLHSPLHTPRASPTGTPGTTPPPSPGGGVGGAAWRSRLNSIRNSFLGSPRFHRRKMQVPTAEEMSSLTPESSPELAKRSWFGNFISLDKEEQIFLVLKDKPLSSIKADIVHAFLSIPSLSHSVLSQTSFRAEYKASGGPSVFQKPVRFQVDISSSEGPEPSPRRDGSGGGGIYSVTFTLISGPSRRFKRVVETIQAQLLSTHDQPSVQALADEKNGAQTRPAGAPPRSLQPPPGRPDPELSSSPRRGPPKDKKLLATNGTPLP

The target of another experiment is T5, MRCKα (Homo sapiens, UniProt Q5VT25).
T5 construct: purchased Carna Biosciences

The target in a further experiment is T6, PKCγ (Homo sapiens, UniProt P05129).
T6 construct: purchased Carna Biosciences

For the next experiment, the target named is T7, SGK3 (Homo sapiens, UniProt Q96BR1).
T7 construct: purchased Carna Biosciences
T7 sequence (Q96BR1 1-496): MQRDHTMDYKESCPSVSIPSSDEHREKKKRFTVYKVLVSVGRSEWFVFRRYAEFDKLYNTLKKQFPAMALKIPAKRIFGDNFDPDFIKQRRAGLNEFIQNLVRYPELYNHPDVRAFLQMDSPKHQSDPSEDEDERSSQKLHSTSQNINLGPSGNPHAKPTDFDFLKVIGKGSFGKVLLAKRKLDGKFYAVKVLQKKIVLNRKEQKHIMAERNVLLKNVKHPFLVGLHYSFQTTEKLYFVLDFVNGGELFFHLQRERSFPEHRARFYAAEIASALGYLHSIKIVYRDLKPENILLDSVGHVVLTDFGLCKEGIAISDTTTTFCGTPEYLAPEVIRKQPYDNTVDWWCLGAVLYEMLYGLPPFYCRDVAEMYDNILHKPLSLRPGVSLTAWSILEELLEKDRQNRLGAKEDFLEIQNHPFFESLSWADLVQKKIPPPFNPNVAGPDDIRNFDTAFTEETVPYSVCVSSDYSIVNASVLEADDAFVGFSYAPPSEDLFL

Results on five compounds are retold here after paper PMC12586182 (Frontiers in Oncology, 2025).

T2 sequence (P35916 25-1363): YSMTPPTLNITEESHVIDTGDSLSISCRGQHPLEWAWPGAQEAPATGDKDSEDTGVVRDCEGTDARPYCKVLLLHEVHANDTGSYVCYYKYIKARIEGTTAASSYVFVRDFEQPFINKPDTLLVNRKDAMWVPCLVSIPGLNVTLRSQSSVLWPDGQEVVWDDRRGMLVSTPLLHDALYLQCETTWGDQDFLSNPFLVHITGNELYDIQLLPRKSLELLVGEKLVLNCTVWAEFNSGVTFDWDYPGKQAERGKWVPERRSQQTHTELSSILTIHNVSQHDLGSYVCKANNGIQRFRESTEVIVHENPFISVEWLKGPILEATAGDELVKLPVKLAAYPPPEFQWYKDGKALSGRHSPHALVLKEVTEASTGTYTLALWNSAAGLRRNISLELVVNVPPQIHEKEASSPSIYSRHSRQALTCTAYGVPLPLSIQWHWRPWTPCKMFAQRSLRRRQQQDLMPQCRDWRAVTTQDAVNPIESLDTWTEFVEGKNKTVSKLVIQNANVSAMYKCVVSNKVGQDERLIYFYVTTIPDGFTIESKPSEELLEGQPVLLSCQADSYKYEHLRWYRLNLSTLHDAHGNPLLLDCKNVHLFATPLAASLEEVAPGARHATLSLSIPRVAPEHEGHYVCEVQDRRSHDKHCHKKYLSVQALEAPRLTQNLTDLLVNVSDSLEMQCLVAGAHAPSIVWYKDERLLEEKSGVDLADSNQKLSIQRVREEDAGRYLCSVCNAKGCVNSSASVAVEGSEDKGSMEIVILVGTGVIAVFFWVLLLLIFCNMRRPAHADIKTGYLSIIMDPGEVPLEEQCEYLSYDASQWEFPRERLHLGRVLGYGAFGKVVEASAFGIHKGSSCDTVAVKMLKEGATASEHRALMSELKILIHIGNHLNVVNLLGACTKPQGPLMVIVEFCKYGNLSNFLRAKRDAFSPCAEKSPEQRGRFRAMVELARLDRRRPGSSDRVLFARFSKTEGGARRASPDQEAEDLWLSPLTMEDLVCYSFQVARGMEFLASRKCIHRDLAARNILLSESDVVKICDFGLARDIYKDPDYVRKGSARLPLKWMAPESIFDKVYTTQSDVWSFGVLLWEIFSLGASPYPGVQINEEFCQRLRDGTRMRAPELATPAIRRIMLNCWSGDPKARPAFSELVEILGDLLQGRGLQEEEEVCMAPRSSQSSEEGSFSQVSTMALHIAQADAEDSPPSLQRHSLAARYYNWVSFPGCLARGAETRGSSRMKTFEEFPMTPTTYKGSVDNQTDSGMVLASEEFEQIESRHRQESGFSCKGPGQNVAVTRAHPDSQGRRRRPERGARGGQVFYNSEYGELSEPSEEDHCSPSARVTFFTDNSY
T5 sequence (Q5VT25 whole entry): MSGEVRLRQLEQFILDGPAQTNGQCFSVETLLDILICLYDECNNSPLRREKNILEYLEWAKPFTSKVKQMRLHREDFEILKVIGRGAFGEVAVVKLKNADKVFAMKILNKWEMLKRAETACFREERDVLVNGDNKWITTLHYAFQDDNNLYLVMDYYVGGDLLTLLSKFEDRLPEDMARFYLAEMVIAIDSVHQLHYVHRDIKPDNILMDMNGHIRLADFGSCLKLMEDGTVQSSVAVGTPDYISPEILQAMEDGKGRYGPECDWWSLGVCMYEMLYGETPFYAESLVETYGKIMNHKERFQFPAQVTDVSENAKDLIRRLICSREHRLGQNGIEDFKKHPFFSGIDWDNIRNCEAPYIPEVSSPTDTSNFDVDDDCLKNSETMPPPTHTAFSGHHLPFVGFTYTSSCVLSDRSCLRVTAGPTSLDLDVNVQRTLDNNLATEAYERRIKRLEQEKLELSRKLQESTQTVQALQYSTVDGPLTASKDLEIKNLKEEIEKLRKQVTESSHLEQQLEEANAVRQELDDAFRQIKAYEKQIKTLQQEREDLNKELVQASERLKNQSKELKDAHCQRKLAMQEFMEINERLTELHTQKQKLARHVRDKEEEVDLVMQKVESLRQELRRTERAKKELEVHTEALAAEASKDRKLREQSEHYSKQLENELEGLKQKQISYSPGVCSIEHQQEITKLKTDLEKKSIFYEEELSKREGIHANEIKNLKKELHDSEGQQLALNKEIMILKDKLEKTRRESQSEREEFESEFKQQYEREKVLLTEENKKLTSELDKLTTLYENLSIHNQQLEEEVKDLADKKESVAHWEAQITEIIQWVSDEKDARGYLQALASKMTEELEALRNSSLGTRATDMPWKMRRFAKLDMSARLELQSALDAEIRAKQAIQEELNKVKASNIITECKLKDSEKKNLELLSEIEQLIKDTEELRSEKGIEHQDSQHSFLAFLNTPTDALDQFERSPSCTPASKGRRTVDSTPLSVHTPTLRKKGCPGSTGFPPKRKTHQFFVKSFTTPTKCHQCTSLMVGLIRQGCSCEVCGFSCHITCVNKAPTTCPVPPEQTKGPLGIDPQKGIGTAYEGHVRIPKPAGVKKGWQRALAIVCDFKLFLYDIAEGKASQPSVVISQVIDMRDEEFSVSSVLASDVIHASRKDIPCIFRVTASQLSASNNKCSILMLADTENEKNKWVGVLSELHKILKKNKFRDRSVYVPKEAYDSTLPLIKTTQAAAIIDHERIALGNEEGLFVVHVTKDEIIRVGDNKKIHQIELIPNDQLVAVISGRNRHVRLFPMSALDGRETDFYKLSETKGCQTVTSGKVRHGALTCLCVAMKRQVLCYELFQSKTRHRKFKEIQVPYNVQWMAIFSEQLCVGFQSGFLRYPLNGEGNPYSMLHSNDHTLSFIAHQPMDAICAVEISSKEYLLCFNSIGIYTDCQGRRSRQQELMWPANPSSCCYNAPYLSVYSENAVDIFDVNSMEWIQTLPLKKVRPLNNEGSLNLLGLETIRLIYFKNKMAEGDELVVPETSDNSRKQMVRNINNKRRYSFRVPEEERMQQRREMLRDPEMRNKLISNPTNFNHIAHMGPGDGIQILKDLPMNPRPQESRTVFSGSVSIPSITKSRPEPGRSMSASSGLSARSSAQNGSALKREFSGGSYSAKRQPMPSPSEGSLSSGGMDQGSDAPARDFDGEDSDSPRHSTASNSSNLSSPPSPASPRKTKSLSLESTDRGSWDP

Take `CC#CC(=O)N1CCC[C@H]1c1nc(-c2ccc(C(=O)Nc3ccccn3)cc2)c2c(N)nccn12` [acalabrutinib]: the “Percentage inhibition of kinase enzyme activity” value (“Percentage inhibition” for short) is listed as 6.23% at DDR2; 1.41% at FLT4; -4.71% at AurA/TPX2; -1.79% at BRSK1; -7.47% on MRCKα; -7.43% on PKCγ. Further, the “Percentage inhibition” value on SGK3 was -11.85%.
In the case of `C=CC(=O)N1CCC[C@@H](n2nc(-c3ccc(Oc4ccccc4)cc3)c3c(N)ncnc32)C1` [ibrutinib], the “Percentage inhibition” value was 17.34% on DDR2; 90.82% on FLT4; -2.33% at AurA/TPX2; -7.32% at BRSK1; -0.62% on MRCKα; 0.80% on PKCγ. The “Percentage inhibition” value at SGK3 is 0.58%.
As for `O=C(c1ccc(Oc2ccccc2)cc1Cl)c1c[nH]c2ncnc(N[C@@H]3CC[C@@H](CO)OC3)c12` [nemtabrutinib], the “Percentage inhibition” value on DDR2 came out at 93.92%; on FLT4, 90.70%; on AurA/TPX2 it was 4.98%; on BRSK1, 12.83%; on MRCKα it was 9.50%; on PKCγ it was 0.06%. Moreover, the “Percentage inhibition” value on SGK3 is listed as -3.28%.
As for `COc1ccc(F)cc1C(=O)NCc1ccc(-c2nn([C@@H](C)C(F)(F)F)c(N)c2C(N)=O)cc1` [pirtobrutinib], the “Percentage inhibition” value is on record as 9.58% on DDR2; 4.92% at FLT4; 1.13% at AurA/TPX2; 3.44% on BRSK1; 0.63% at MRCKα; 3.04% at PKCγ. In addition, the “Percentage inhibition” value at SGK3 is recorded as -2.68%.
On to `C=CC(=O)N1CCC([C@@H]2CCNc3c(C(N)=O)c(-c4ccc(Oc5ccccc5)cc4)nn32)CC1` [zanubrutinib], for which the “Percentage inhibition” value on FLT4 is given as -6.85%.
